According to patent publication US11806386B2, “Type I diabetes therapy” (St. Vincent's Institute of Medical Research, priority 2017, dated 2023):

Assays:
[1] = target: JAK2 (Homo sapiens, UniProt O60674); settings: cited from earlier work
[2] = tested on: other JAK-family kinases; settings: cited from earlier work
[3] = tested on: JAK/STAT signalling (p-STAT1); experiment: IFNγ-mediated STAT1 phosphorylation in peripheral blood stimulated ex vivo after oral dosing (Western blot); parameters: species or system NOD mice; settings: 80 mg/kg daily oral gavage from 2 to 4 weeks of age; blood taken 2 h after last dose, 100 U/mL IFNγ ex vivo; p=0.01
Experimental: (A) NOD mice received 80 mg/kg ruxolitinib (n=5) or vehicle (n=5) daily by oral gavage from 2 to 4 weeks of age. Two hours after last dose of ruxolitinib or vehicle, peripheral blood was stimulated with 100 U/mL IFNγ ex vivo and analysed by Western blot for IFNγ-mediated phosphorylation of STAT1 and housekeeping protein β-actin. The intensity of p-STAT1 as a ratio of β-actin in arbitrary units (mean±SEM) was used to measure p-STAT1. p=0.01 using two-tailed unpaired t test.
The JAK1/JAK2 inhibitor ruxolitinib was purchased from Chemietek (USA). […] Mice receiving JAK inhibitor were treated with 80 mg/kg ruxolitinib daily by oral gavage from 2 to 4 weeks of age. Control mice received the same volume of vehicle by oral gavage.
Peripheral whole blood was stimulated with 100 U/mL IFN-γ (Biolegend) for 30 min at 37° C. […] Samples were further treated with radioimmunoprecipitation assay buffer (R0278, Sigma), sample buffer (10% SDS, 30% glycerol, 0.02% bromophenol blue in 250 mM Tris-HCl, pH 6.8) and β-mercaptoethanol. Near-infrared fluorescent western blotting was performed using anti-p-STAT1 antibody (BD Biosciences), normalized to β-actin (Santa Cruz Biotechnology) and scanned on an Odyssey CLx imager.
At 4 weeks of age, two hours after the last oral gavage of 80 mg/kg ruxolitinib or vehicle, peripheral blood and islets were harvested from NOD mice.

[4] = tested on: IGRP-specific CD8+ T cells
Experimental: IGRP was expressed in TII mice at 10-weeks of age. NOD mice were used as controls without antigen expression. At 13-weeks of age, mice were treated for 2 weeks with vehicle (Veh) or JAK inhibitor (JAKi). Mice were harvested for analysis immediately after treatment (2 week), or after a further 2 or 4 weeks with antigen alone (4 week and 6 week). The number of IGRP-specific CD8+ T cells in the peripheral lymphoid organs (PLO, top panel) or islets (bottom panel) is shown for each time point.
TII mice received doxycycline until 10-weeks of age. After doxycycline was removed, IGRP was expressed in antigen presenting cells of mice carrying both tetO-IGRP and IEα-tTA transgenes. Mice were treated with 10 mg/kg JAK inhibitor or vehicle between 13-15 w of age for 2 weeks. Mice were analysed at 2 weeks (harvest immediately after stopping JAK inhibitor), 4 weeks (harvest two weeks after stopping JAK inhibitor), and 6 weeks (harvest four weeks after stopping JAK inhibitor). Data is from 1-3 experiments per time point with 3-4 mice per group/experiment.
Cells were washed then stained with anti-PE MicroBeads (Miltenyi Biotec) and magnetically separated using an AutoMACSpro (Miltenyi Biotec).
Fluorescent-labelled monoclonal antibodies specific for CD4 (GK1.5) bound to APC-Cy7, CD8 (53-6.7) bound to FITC, CD3 (500A2) bound to AmCyan, CD44 (IM7) bound to Alexa Fluor 700, and CD11 b (M1/70), CD11c (N418) and Ly6G (RB6-8C5) bound to Pacific Blue were used to stain magnetically sorted cells. Analysis was performed using FACSFortessa (BD Bioscience) and FlowJo software (TreeStar). Single cells were gated on forward and side scatter, and dead cells excluded using propidium iodide. CD11 b^− CD11c^− Ly6G^− CD3^+ CD8^+ cells were gated as the target population for analysis of IGRP tetramer-positive T cells.

[5] = tested on: diabetes in TIP2 mice; settings: combination therapy: TIP2 mice expressing proinsulin plus 10 mg/kg twice daily oral from 12 to 14 weeks of age (cohort 3); p<0.005
Experimental: Mice were monitored for 30 weeks (210 days). […] Diabetes incidence curves compared using Log-Rank (Mantel-Cox) test.
Removal of doxycycline allowed the maximal recovery of proinsulin expression by 12 weeks (84 days) of age.
Mice receiving JAK inhibitor were treated with 10 mg/kg dose twice daily by oral gavage from 12 to 14 weeks (day 84-98) of age. Control mice received the same volume of vehicle by oral gavage.
Female mice were monitored for diabetes weekly by measurement of urinary glucose levels using Diastix (Bayer). Those suspected of hyperglycaemia had further blood glucose level testing on two consecutive days using ACCU-CHEK Advantage II strips (Roche). Mice with two consecutive blood glucose measurements of greater than or equal to 15 mM were considered diabetic.
TIP2 mice were administered doxycycline until 8 weeks of age to suppress proinsulin expression. At 12 weeks of age TIP2 mice received JAK inhibitor (combination therapy; cohort 3; FIG. 4A) or vehicle (proinsulin monotherapy; cohort 2).

Sequence of JAK2 (O60674 whole entry, species assumed): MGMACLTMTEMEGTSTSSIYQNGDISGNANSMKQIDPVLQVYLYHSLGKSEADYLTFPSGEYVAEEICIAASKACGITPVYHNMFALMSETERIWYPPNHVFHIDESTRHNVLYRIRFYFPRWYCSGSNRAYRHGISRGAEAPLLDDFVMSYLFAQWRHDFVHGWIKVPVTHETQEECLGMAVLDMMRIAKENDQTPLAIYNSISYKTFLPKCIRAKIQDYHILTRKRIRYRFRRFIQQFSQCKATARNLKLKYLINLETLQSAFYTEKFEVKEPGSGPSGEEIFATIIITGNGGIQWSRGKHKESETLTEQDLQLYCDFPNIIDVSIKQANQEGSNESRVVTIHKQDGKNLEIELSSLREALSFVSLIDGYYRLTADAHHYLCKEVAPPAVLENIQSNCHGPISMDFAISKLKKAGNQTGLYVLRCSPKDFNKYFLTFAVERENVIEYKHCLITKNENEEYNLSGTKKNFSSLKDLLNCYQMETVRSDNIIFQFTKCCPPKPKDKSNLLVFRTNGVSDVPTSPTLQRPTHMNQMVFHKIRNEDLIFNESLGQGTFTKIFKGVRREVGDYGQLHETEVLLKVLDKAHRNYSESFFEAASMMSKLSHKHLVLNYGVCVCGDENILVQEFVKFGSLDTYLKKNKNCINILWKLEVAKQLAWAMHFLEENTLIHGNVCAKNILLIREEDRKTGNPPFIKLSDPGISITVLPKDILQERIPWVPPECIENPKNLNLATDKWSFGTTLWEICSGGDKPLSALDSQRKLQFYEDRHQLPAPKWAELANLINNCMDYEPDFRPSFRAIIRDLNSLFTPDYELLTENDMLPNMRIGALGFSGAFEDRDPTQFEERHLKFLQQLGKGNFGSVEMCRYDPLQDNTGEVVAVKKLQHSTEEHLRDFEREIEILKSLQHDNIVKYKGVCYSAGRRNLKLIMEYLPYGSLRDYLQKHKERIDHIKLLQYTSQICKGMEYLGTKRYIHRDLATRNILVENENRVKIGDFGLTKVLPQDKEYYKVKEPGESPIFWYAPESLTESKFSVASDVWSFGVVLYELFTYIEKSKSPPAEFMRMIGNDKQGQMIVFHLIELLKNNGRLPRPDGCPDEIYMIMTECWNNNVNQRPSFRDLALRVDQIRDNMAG

## C[C@H](Nc1cc(-c2cnn(C)c2)cc(Nc2cnccn2)n1)c1ccc(F)cc1 [NS018]
[1]
  IC50: < 1 nM
[2]
  selectivity for JAK2 over other JAK-family kinases: 30-50 fold

## N#CC[C@H](C1CCCC1)n1cc(-c2ncnc3[nH]ccc23)cn1 [ruxolitinib]
[3]
  reduction of STAT1 phosphorylation compared to vehicle-treated NOD mice: greater than 50%

## CC(C)(C)c1nc2c3cc[nH]c(=O)c3c3cc(F)ccc3c2[nH]1 [JAK inhibitor]
[4]; NOD mice without antigen expression (NOD-JAKi)
  IGRP specific memory T cells 2 weeks after cessation of treatment: returned
[4]; TII mice expressing IGRP from 10 weeks, 10 mg/kg for 2 weeks, TII-Veh vs TII-JAKi
  IGRP specific memory T cells in PLO and in islets immediately after 2 weeks of treatment: decrease
[4]; TII mice with antigen expression (TII-JAKi), islets at 6 weeks p=0.02, PLO p=0.054
  IGRP specific memory T cell numbers after cessation of treatment: remained low
[5]
  protection from diabetes at 30 weeks of age (210 days): significantly protected from diabetes
